Measurements: PubChem BioAssay (NCI)
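Growth conditions: 96-well plates. Treatment: test compound, 48 hours, 5 concentrations. Analysis: linear interpolation between bracketing concentrations; unreached endpoints set to highest concentration. TGI marks complete inhibition of growth.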

Tests used:
Experiment in all cases: growth of human tumour cells (NCI), 48 h
HL-60(TB) leukemia = tested on: HL-60(TB) leukemia
NCI-H226 lung = tested on: NCI-H226 lung
HS 578T breast = tested on: HS 578T breast
SK-MEL-28 melanoma = tested on: SK-MEL-28 melanoma
U251 CNS = tested on: U251 CNS
NCI-H522 lung = tested on: NCI-H522 lung
786-0 renal = tested on: 786-0 renal
MDA-N = tested on: MDA-N
SK-OV-3 ovarian = tested on: SK-OV-3 ovarian
RXF 393 renal = tested on: RXF 393 renal
SN12C renal = tested on: SN12C renal
CAKI-1 renal = tested on: CAKI-1 renal
OVCAR-8 ovarian = tested on: OVCAR-8 ovarian
DU-145 prostate = tested on: DU-145 prostate
SNB-75 CNS = tested on: SNB-75 CNS
UO-31 renal = tested on: UO-31 renal
PC-3 prostate = tested on: PC-3 prostate
T-47D breast = tested on: T-47D breast
COLO 205 colon = tested on: COLO 205 colon
HCT-116 colon = tested on: HCT-116 colon
TK-10 renal = tested on: TK-10 renal
SR leukemia = tested on: SR leukemia
NCI/ADR-RES ovarian = tested on: NCI/ADR-RES ovarian
A549 NSCLC = tested on: A549 NSCLC
MOLT-4 leukemia = tested on: MOLT-4 leukemia
EKVX NSCLC = tested on: EKVX NSCLC
K-562 leukemia = tested on: K-562 leukemia
NCI-H23 lung = tested on: NCI-H23 lung
OVCAR-5 ovarian = tested on: OVCAR-5 ovarian
HOP-62 NSCLC = tested on: HOP-62 NSCLC
HOP-92 NSCLC = tested on: HOP-92 NSCLC
HCT-15 colon = tested on: HCT-15 colon
HCC-2998 colon = tested on: HCC-2998 colon
OVCAR-3 ovarian = tested on: OVCAR-3 ovarian
SF-268 CNS = tested on: SF-268 CNS
HT29 colon = tested on: HT29 colon
SW-620 colon = tested on: SW-620 colon
LOX IMVI melanoma = tested on: LOX IMVI melanoma
SF-295 CNS = tested on: SF-295 CNS
MDA-MB-231 breast = tested on: MDA-MB-231 breast
SNB-19 CNS = tested on: SNB-19 CNS
SF-539 CNS = tested on: SF-539 CNS
SK-MEL-5 melanoma = tested on: SK-MEL-5 melanoma
UACC-257 melanoma = tested on: UACC-257 melanoma
UACC-62 melanoma = tested on: UACC-62 melanoma
ACHN renal = tested on: ACHN renal
IGROV1 ovarian = tested on: IGROV1 ovarian
RPMI-8226 leukemia = tested on: RPMI-8226 leukemia
A498 renal = tested on: A498 renal
MDA-MB-435 = tested on: MDA-MB-435
BT-549 breast = tested on: BT-549 breast
MCF7 breast = tested on: MCF7 breast
NCI-H460 lung = tested on: NCI-H460 lung
M14 melanoma = tested on: M14 melanoma
CCRF-CEM leukemia = tested on: CCRF-CEM leukemia
OVCAR-4 ovarian = tested on: OVCAR-4 ovarian
MALME-3M melanoma = tested on: MALME-3M melanoma
KM12 colon = tested on: KM12 colon
SK-MEL-2 melanoma = tested on: SK-MEL-2 melanoma
SNB-78 CNS = tested on: SNB-78 CNS
DLD-1 colon = tested on: DLD-1 colon
DMS 114 small cell lung = tested on: DMS 114 small cell lung
XF 498 CNS = tested on: XF 498 CNS
DMS 273 small cell lung = tested on: DMS 273 small cell lung
M19-MEL melanoma = tested on: M19-MEL melanoma
KM20L2 colon = tested on: KM20L2 colon
LXFL 529 NSCLC = tested on: LXFL 529 NSCLC

CCN1CCN(c2nc3ccccc3c3c2CCOc2ccccc2-3)CC1
TGI (HL-60(TB) leukemia): > 77.3 µM | TGI (NCI-H226 lung): > 77.9 µM | TGI (HS 578T breast): > 59.2 µM | TGI (SK-MEL-28 melanoma): 32.4 µM | TGI (U251 CNS): > 79.2 µM | TGI (NCI-H522 lung): > 62.3 µM | TGI (786-0 renal): > 55.1 µM | TGI (MDA-N): > 55.8 µM | TGI (SK-OV-3 ovarian): > 70.7 µM | TGI (RXF 393 renal): > 65.1 µM | TGI (SN12C renal): > 84 µM | TGI (CAKI-1 renal): > 55.3 µM | TGI (OVCAR-8 ovarian): > 75.5 µM | TGI (DU-145 prostate): > 31.6 µM | TGI (SNB-75 CNS): > 62.6 µM | TGI (UO-31 renal): > 66 µM | TGI (PC-3 prostate): > 90.9 µM | TGI (T-47D breast): > 69.8 µM | TGI (COLO 205 colon): 37.2 µM | TGI (HCT-116 colon): > 59 µM | TGI (TK-10 renal): > 56.9 µM | TGI (SR leukemia): 24.8 µM | TGI (NCI/ADR-RES ovarian): > 78.1 µM | TGI (A549 NSCLC): > 69.3 µM | TGI (MOLT-4 leukemia): > 56 µM | TGI (EKVX NSCLC): > 100 µM | TGI (K-562 leukemia): > 100 µM | TGI (NCI-H23 lung): > 100 µM | TGI (OVCAR-5 ovarian): > 65.2 µM | TGI (HOP-62 NSCLC): > 100 µM | TGI (HOP-92 NSCLC): > 73.1 µM | TGI (HCT-15 colon): 40.1 µM | TGI (HCC-2998 colon): 37.3 µM | TGI (OVCAR-3 ovarian): > 100 µM | TGI (SF-268 CNS): > 100 µM | TGI (HT29 colon): > 51.5 µM | TGI (SW-620 colon): > 67.5 µM | TGI (LOX IMVI melanoma): 34.1 µM | TGI (SF-295 CNS): > 63 µM | TGI (MDA-MB-231 breast): > 61.2 µM | TGI (SNB-19 CNS): > 75.1 µM | TGI (SF-539 CNS): > 65.2 µM | TGI (SK-MEL-5 melanoma): 36.7 µM | TGI (UACC-257 melanoma): 34.8 µM | TGI (UACC-62 melanoma): 34.7 µM | TGI (ACHN renal): > 100 µM | TGI (IGROV1 ovarian): > 58.3 µM | TGI (RPMI-8226 leukemia): 50 µM | TGI (A498 renal): > 57.4 µM | TGI (MDA-MB-435): > 62.7 µM | TGI (BT-549 breast): > 100 µM | TGI (MCF7 breast): > 56.5 µM | TGI (NCI-H460 lung): > 73.9 µM | TGI (M14 melanoma): 38.4 µM | TGI (CCRF-CEM leukemia): > 83.6 µM | TGI (OVCAR-4 ovarian): > 100 µM | TGI (MALME-3M melanoma): 35.3 µM | TGI (KM12 colon): > 56 µM | TGI (SK-MEL-2 melanoma): > 67.4 µM

COC(=O)C(Cc1nc2ccccc2[nH]c1=O)C(NO)C(=O)Nc1c(Cl)cc([N+](=O)[O-])cc1Cl (stereo not given)
TGI (SK-MEL-28 melanoma): > 100 µM | TGI (U251 CNS): 99 µM | TGI (NCI-H522 lung): 31.3 µM | TGI (786-0 renal): > 100 µM | TGI (SK-OV-3 ovarian): > 100 µM | TGI (RXF 393 renal): 50.2 µM | TGI (SN12C renal): > 100 µM | TGI (CAKI-1 renal): > 100 µM | TGI (OVCAR-8 ovarian): > 100 µM | TGI (UO-31 renal): > 100 µM | TGI (COLO 205 colon): > 100 µM | TGI (HCT-116 colon): 47.9 µM | TGI (SR leukemia): > 100 µM | TGI (A549 NSCLC): > 100 µM | TGI (MOLT-4 leukemia): 67 µM | TGI (EKVX NSCLC): > 100 µM | TGI (SNB-78 CNS): > 100 µM | TGI (K-562 leukemia): > 100 µM | TGI (NCI-H23 lung): 61.1 µM | TGI (HOP-62 NSCLC): > 100 µM | TGI (HOP-92 NSCLC): 25.7 µM | TGI (HCT-15 colon): > 100 µM | TGI (HCC-2998 colon): > 100 µM | TGI (OVCAR-3 ovarian): > 100 µM | TGI (SF-268 CNS): > 100 µM | TGI (HT29 colon): > 100 µM | TGI (DLD-1 colon): > 100 µM | TGI (SF-295 CNS): > 100 µM | TGI (SNB-19 CNS): > 100 µM | TGI (SF-539 CNS): 56.5 µM | TGI (SK-MEL-5 melanoma): 46.4 µM | TGI (UACC-257 melanoma): > 100 µM | TGI (UACC-62 melanoma): 34.5 µM | TGI (ACHN renal): > 100 µM | TGI (IGROV1 ovarian): > 100 µM | TGI (DMS 114 small cell lung): 54.8 µM | TGI (RPMI-8226 leukemia): > 100 µM | TGI (A498 renal): 46.5 µM | TGI (NCI-H460 lung): 44.7 µM | TGI (M14 melanoma): > 100 µM | TGI (CCRF-CEM leukemia): 65.3 µM | TGI (OVCAR-4 ovarian): > 100 µM | TGI (MALME-3M melanoma): > 100 µM | TGI (KM12 colon): > 100 µM | TGI (SK-MEL-2 melanoma): 82.2 µM

COC(=O)CC1N=C(NC#N)N(CCc2c[nH]c3ccccc23)C1=O (stereo not given)
TGI (HL-60(TB) leukemia): > 100 µM | TGI (NCI-H226 lung): > 100 µM | TGI (SK-MEL-28 melanoma): > 100 µM | TGI (U251 CNS): > 100 µM | TGI (786-0 renal): > 100 µM | TGI (SK-OV-3 ovarian): > 100 µM | TGI (RXF 393 renal): > 100 µM | TGI (XF 498 CNS): > 100 µM | TGI (SN12C renal): > 100 µM | TGI (OVCAR-8 ovarian): > 100 µM | TGI (SNB-75 CNS): > 100 µM | TGI (UO-31 renal): > 100 µM | TGI (DMS 273 small cell lung): > 100 µM | TGI (COLO 205 colon): > 100 µM | TGI (HCT-116 colon): > 100 µM | TGI (TK-10 renal): > 100 µM | TGI (SR leukemia): > 100 µM | TGI (A549 NSCLC): > 100 µM | TGI (MOLT-4 leukemia): > 100 µM | TGI (M19-MEL melanoma): > 100 µM | TGI (EKVX NSCLC): > 100 µM | TGI (SNB-78 CNS): > 100 µM | TGI (K-562 leukemia): > 100 µM | TGI (NCI-H23 lung): > 100 µM | TGI (OVCAR-5 ovarian): > 100 µM | TGI (HOP-62 NSCLC): > 100 µM | TGI (KM20L2 colon): > 100 µM | TGI (HCT-15 colon): > 100 µM | TGI (HCC-2998 colon): > 100 µM | TGI (OVCAR-3 ovarian): > 100 µM | TGI (SF-268 CNS): > 100 µM | TGI (HT29 colon): > 100 µM | TGI (SW-620 colon): > 100 µM | TGI (LOX IMVI melanoma): > 100 µM | TGI (LXFL 529 NSCLC): > 100 µM | TGI (DLD-1 colon): > 100 µM | TGI (SF-295 CNS): > 100 µM | TGI (SNB-19 CNS): > 100 µM | TGI (SF-539 CNS): > 100 µM | TGI (SK-MEL-5 melanoma): > 100 µM | TGI (UACC-257 melanoma): > 100 µM | TGI (UACC-62 melanoma): > 100 µM | TGI (ACHN renal): > 100 µM | TGI (IGROV1 ovarian): > 100 µM | TGI (DMS 114 small cell lung): > 100 µM | TGI (RPMI-8226 leukemia): > 100 µM | TGI (NCI-H460 lung): > 100 µM | TGI (M14 melanoma): > 100 µM | TGI (CCRF-CEM leukemia): > 100 µM | TGI (OVCAR-4 ovarian): > 100 µM | TGI (KM12 colon): > 100 µM
